In patent US20240043444A1, “METHODS FOR TREATING SPINOCEREBELLAR ATAXIA TYPE 3” (PTC Therapeutics, Inc., priority 2021, published 2024):

Experiments:
[1] = test system: Endogenous Total ATXN3 (tATXN3) Protein; assay: Endogenous Total ATXN3 (tATXN3) Protein Assay (MSD immunoassay of cell lysates); assay type: cell-based; settings: cells incubated with compound 48 h; 7-point concentration curve; MSD plate readout
Experimental: Meso Scale Discovery (MSD) 96-well or 384-well plates were coated overnight at 4° C. with Ataxin 3 mouse monoclonal antibody (Invitrogen, MA3-082) at a concentration of […] in PBS (30 μL per well). Plates were then washed three times with 300 μL wash buffer (0.05% TWEEN®-20, polyethylene glycol sorbitan monolaurate, in PBS) and blocked (Meso Scale Diagnostics, R93BA-1; 5% BSA in PBS) for 2 h at room temperature with rotational shaking and then washed three times with wash buffer.
(§1) Test compounds were serially diluted 3.16-fold in 100% DMSO to generate a 7-point concentration curve. Aliquots of 0.5 μL of diluted compounds were transferred to a 96-well flat bottom plate by a liquid handler. An aliquot of 0.5 μL DMSO was also transferred to separate wells and used as controls. Duplicate samples were set up for each compound concentration and for the DMSO control.
Cells were thawed and incubated in cell culture media (DMEM, 10% FBS, and 1% antibiotic cocktail) for 72 h. Cells were trypsinized, counted, and re-suspended to a concentration of 100,000 cells/mL in cell culture media. A 100 μL aliquot of the cell suspensions were plated at 10,000 cells per well in the compound containing 96 well microtiter plate and incubated for in a cell culture incubator (37° C., 5% CO2, 100% relative humidity). After 48 h, the medium was removed and 50-100 μL of lysis buffer (Meso Scale Diagnostics, R60TX-2) containing 1× halt protease inhibitor cocktail of (Thermo Scientific, Halt™ Protease Inhibitor Cocktail, 78430) per well was added to cells to provide a “cell lysate”. The plate was placed on a shaker at 4° C. for 30 minutes, then stored at −80° C.
Cell lysate samples (25 μL) were transferred to the antibody-coated MSD plate and incubated overnight at 4° C. After removal of the lysates, the plate was washed three times with wash buffer, and 25 μL of Ataxin 3 recombinant rabbit monoclonal antibody (Invitrogen, #702788) secondary antibody (diluted to 0.25 μg/mL in 0.05% TWEEN®-20 in blocking buffer) was added to each well and incubated with shaking for 1-2 h at room temperature. Following incubation with the secondary antibody, the wells were rinsed with wash buffer and then 25 μL of Anti Rabbit Antibody Goat SULFO-TAG Labeled (Meso Scale Diagnostics, R32AB-1) detecting antibody (diluted to 0.25 μg/mL in 0.05% TWEEN®-20 in blocking buffer) was added to each well and incubated with shaking for 1 h at room temperature. After rinsing three times with wash buffer, 150 μL of Read Buffer T with surfactant (tris-based buffer containing tripropylamine, Meso Scale Diagnostics, R92TC-1) were added to each empty well, and the plate was imaged on a SI 6000 imager (MSD) according to manufacturers' instructions provided for 96- or 384-well plates.

[2] = test system: ATXN3 Pre-mRNA (exon 4 skipping); assay: RT-qPCR Assay to Quantify Exon 4 Skipping in ATXN3 Pre-mRNA in Cells; assay type: cell-based; settings: cells incubated with compound 24 h, normalised to GAPDH, 7-point concentration curve
Experimental: as §1
Cells were thawed and incubated in cell culture media (DMEM, 10% FBS, and 1% antibiotic cocktail) for 72 h. Cells were trypsinized, counted, and re-suspended to a concentration of 100,000 cells/mL in cell culture media. A 100 μL aliquot of the cell suspensions were plated at 10,000 cells per well in the compound containing 96 well microtiter plate and incubated for in a cell culture incubator (37° C., 5% CO2, 100% relative humidity).
After 24 h, media was aspirated from the cells and 50 μL of the RCL2 lysis buffer (10 mM Tris-HCL pH 7.4, 150 mM NaCl, 0.33% IGEPAL® CA-630) was added to each well and incubated at room temperature for 1 min. Chilled nuclease free water (50 μL per well) was added and the plates were immediately transferred on ice. After 1 min on ice, plates were frozen at −80° C. overnight.
Preparation of RT-qPCR Reaction Mixture:
An aliquot of 2 μL/well of the cell lysates was transferred using the liquid handler to the Armadillo 384-Well PCR plate containing 8 μL/well of the RT-qPCR reaction mixture that was prepared as detailed above. The plates were then sealed with MicroAmp™ Optical Adhesive Film followed by spinning down for 1 min and placed in the CFX384 thermocycler (BioRad).
The RT-qPCR was carried out at the following temperatures for the indicated time: • Step 1: 48° C. (30 min) • Step 2: 95° C. (10 min) • Step 3: 95° C. (15 sec) • Step 4: 60° C. (1 min); then, repeated Steps 3 and 4 for a total of 40 cycles.
The percent exon 4 skipping was calculated for each dose of compound treatment using Equations 1 and 2.
Data were fit to a dose response curve and the IC50 was interpolated using XLfit® statistical and curve fitting package.
An IC50 value between >2.0 μM and ≤3.0 μM is indicated by one star (*). […] IC50 value between >0.5 μM and ≤1.0 μM is indicated by four stars (****). An IC50 value ≤0.5 μM is indicated by five stars (*****).

| IC50 (average, total ATXN3 protein) [1] | Compound | IC50 [1] [nM] | IC50 [2] [nM] | IC50 (exon 4 skipping in ATXN3 pre-mRNA) [2] |
| --- | --- | --- | --- | --- |
|  | CC[C@H](N)Cc1sc2c(NCc3ccns3)nc(Cl)nc2c1C [Cpd 62, 6-[(2S)-2-aminobutyl]-2-chloro-7-methyl-N-[(1,2-thiazol-5-yl)methyl]thieno[3,2-d]pyrimidin-4-amine] | ≤ 500 | ≤ 500 |  |
|  | Cc1c(C[C@H](C)N)sc2c(NCc3c(F)cncc3F)nc(Cl)nc12 [Cpd 64, 6-[(2S)-2-aminopropyl]-2-chloro-N-[(3,5-difluoropyridin-4-yl)methyl]-7-methylthieno[3,2-d]pyrimidin-4-amine] | 1000 to 1500 | 500 to 1000 |  |
| inactive | Cc1c(C[C@H](C)CO)sc2c(NCc3ccco3)nc(Cl)nc12 [Cpd 66, (2S)-3-(2-chloro-4-{[(furan-2-yl)methyl]amino}-7-methylthieno[3,2-d]pyrimidin-6-yl)-2-methylpropan-1-ol] |  |  | inactive |
| inactive | Cc1c(CCCN)sc2c(NCc3ccco3)nc(Cl)nc12 [Cpd 67, 6-(3-aminopropyl)-2-chloro-N-[(furan-2-yl)methyl]-7-methylthieno[3,2-d]pyrimidin-4-amine] |  |  | inactive |
|  | C[C@H](N)Cc1sc2c(NCc3ccncc3F)nc(Cl)nc2c1Br [Cpd 68, 6-[(2S)-2-aminopropyl]-7-bromo-2-chloro-N-[(3-fluoropyridin-4-yl)methyl]thieno[3,2-d]pyrimidin-4-amine] | ≤ 500 | ≤ 500 |  |
|  | Cc1c(C[C@H](C)CN)sc2c(NCc3ccco3)nc(Cl)nc12 [Cpd 70, 6-[(2S)-3-amino-2-methylpropyl]-2-chloro-N-[(furan-2-yl)methyl]-7-methylthieno[3,2-d]pyrimidin-4-amine] | 1000 to 1500 | 500 to 1000 |  |
|  | Cc1c(C[C@@H](C)CN)sc2c(NCc3ccco3)nc(Cl)nc12 [Cpd 72, 6-[(2R)-3-amino-2-methylpropyl]-2-chloro-N-[(furan-2-yl)methyl]-7-methylthieno[3,2-d]pyrimidin-4-amine] | > 2000 | 1500 to 2000 |  |
|  | Cc1c(C[C@H](C)N)sc2c(NCc3cncs3)nc(Cl)nc12 [Cpd 74, 6-[(2S)-2-aminopropyl]-2-chloro-7-methyl-N-[(1,3-thiazol-5-yl)methyl]thieno[3,2-d]pyrimidin-4-amine] | 1500 to 2000 | 1000 to 1500 |  |
|  | Cc1c(C[C@H](C)N)sc2c(NCc3cnco3)nc(Cl)nc12 [Cpd 75, 6-[(2S)-2-aminopropyl]-2-chloro-7-methyl-N-[(1,3-oxazol-5-yl)methyl]thieno[3,2-d]pyrimidin-4-amine] | 1000 to 1500 | 500 to 1000 |  |
|  | CCc1c(C[C@H](C)N)sc2c(NCc3ccco3)nc(Cl)nc12 [Cpd 77, 6-[(2S)-2-aminopropyl]-2-chloro-7-ethyl-N-[(furan-2-yl)methyl]thieno[3,2-d]pyrimidin-4-amine] | ≤ 500 | ≤ 500 |  |
|  | Cc1c(C[C@H](C)NC2CCC2)sc2c(NCc3ccco3)nc(Cl)nc12 [Cpd 78, 2-chloro-6-[(2S)-2-(cyclobutylamino)propyl]-N-[(furan-2-yl)methyl]-7-methylthieno[3,2-d]pyrimidin-4-amine] | 1500 to 2000 | 1000 to 1500 |  |
| inactive | Clc1nc(NCc2cccs2)c2scc(Br)c2n1 [Cpd 80, 7-bromo-2-chloro-N-[(thiophen-2-yl)methyl]thieno[3,2-d]pyrimidin-4-amine] |  |  | inactive |
|  | C[C@H](N)Cc1sc2c(NCc3cccs3)nc(Cl)nc2c1Br [Cpd 82, 6-[(2S)-2-aminopropyl]-7-bromo-2-chloro-N-[(thiophen-2-yl)methyl]thieno[3,2-d]pyrimidin-4-amine] | ≤ 500 | ≤ 500 |  |
|  | C[C@H](N)Cc1sc2c(NCc3cccs3)nc(Cl)nc2c1C1CC1 [Cpd 86, 6-[(2S)-2-aminopropyl]-2-chloro-7-cyclopropyl-N-[(thiophen-2-yl)methyl]thieno[3,2-d]pyrimidin-4-amine] | ≤ 500 | ≤ 500 |  |
|  | Cc1c(C[C@H](C)N)sc2c(NCc3sccc3F)nc(Cl)nc12 [Cpd 90, 6-[(2S)-2-aminopropyl]-2-chloro-N-[(3-fluorothiophen-2-yl)methyl]-7-methylthieno[3,2-d]pyrimidin-4-amine] | ≤ 500 | ≤ 500 |  |
|  | Cc1c(C[C@H](C)N)sc2c(NCc3nc(F)cs3)nc(Cl)nc12 [Cpd 92, 6-[(2S)-2-aminopropyl]-2-chloro-N-[(4-fluoro-1,3-thiazol-2-yl)methyl]-7-methylthieno[3,2-d]pyrimidin-4-amine] | ≤ 500 | ≤ 500 |  |
|  | Cc1c(C[C@H](C)N)sc2c(NCc3ncc(F)s3)nc(Cl)nc12 [Cpd 93, 6-[(2S)-2-aminopropyl]-2-chloro-N-[(5-fluoro-1,3-thiazol-2-yl)methyl]-7-methylthieno[3,2-d]pyrimidin-4-amine] | ≤ 500 | ≤ 500 |  |
| inactive | Cc1c([C@@H](C)N)sc2c(NCc3ccco3)nc(Cl)nc12 [Cpd 94, 6-[(1R)-1-aminoethyl]-2-chloro-N-[(furan-2-yl)methyl]-7-methylthieno[3,2-d]pyrimidin-4-amine] |  |  | inactive |
|  | Cc1c(C[C@@H](N)CCO)sc2c(NCc3ccco3)nc(Cl)nc12 [Cpd 97, (3S)-3-amino-4-(2-chloro-4-{[(furan-2-yl)methyl]amino}-7-methylthieno[3,2-d]pyrimidin-6-yl)butan-1-ol] | ≤ 500 | ≤ 500 |  |

| Compound | IC50 (average, total ATXN3 protein) [1] | IC50 [1] [nM] | IC50 [2] [nM] | IC50 (exon 4 skipping in ATXN3 pre-mRNA) [2] |
| --- | --- | --- | --- | --- |
| Cc1c(C[C@H](C)N)sc2c(NCc3ncc[nH]3)nc(Cl)nc12 [Cpd 73, 6-[(2S)-2-aminopropyl]-2-chloro-N-[(1H-imidazol-2-yl)methyl]-7-methylthieno[3,2-d]pyrimidin-4-amine] | inactive |  |  | inactive |
| Cc1c(C[C@H](C)N)sc2c(NCc3ccnn3C)nc(Cl)nc12 [Cpd 81, 6-[(2S)-2-aminopropyl]-2-chloro-7-methyl-N-[(1-methyl-1H-pyrazol-5-yl)methyl]thieno[3,2-d]pyrimidin-4-amine] | inactive |  |  | inactive |
| C[C@H](N)Cc1sc2c(NCc3cccs3)nc(Cl)nc2c1-c1ccc(Cl)cc1 [Cpd 88, 6-[(2S)-2-aminopropyl]-2-chloro-7-(4-chlorophenyl)-N-[(thiophen-2-yl)methyl]thieno[3,2-d]pyrimidin-4-amine] | inactive |  |  | inactive |
